Laboratory results taken from patent publication US20260008805A1, “ADENOSINE ANALOGS FOR THE TREATMENT OF DISEASE” (BIOINTERVENE, INC., priority 2022, published 2026).

Legend:
[1] = target: T1, human adenosine A3 receptor (Homo sapiens, UniProt P0DMS8); assay: Intracellular cAMP levels (inhibition of forskolin-stimulated cAMP production); type: cell-based; conditions: Table 1; for EC50: CHO-K1 cells expressing human adenosine A3 receptor, forskolin 10 μM; for cAMP Efficacy (%): maximal response as percentage of the response produced by 100 nM IB-MECA
T1 construct: expressed in transfected cells; host or cells: CHO-K1 cells, stably transfected
T1 sequence (P0DMS8 1-318): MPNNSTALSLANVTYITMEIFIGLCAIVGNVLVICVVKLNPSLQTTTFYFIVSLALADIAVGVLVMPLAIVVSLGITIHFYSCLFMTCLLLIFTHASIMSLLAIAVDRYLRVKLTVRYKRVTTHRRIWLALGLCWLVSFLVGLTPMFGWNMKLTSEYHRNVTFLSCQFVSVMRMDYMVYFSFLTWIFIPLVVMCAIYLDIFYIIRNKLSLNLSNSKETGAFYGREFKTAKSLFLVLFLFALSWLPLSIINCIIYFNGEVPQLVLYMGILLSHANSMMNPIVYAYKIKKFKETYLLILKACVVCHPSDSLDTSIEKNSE
Description: The method followed is that published in Yates L, Clark J H, Martin T J, James S, Broadley K J, Kidd E J. Radioligand binding and functional responses of ligands for human recombinant adenosine A3 receptors. Auton Autacoid Pharmacol. 2006 April; 26 (2): 191-200.
Materials and Cell Culture: Adenosine deaminase is obtained from Roche (Lewes, UK). Forskolin is obtained from Sigma-Aldrich (Poole, UK). The sources of other materials are provided above in Example 1. CHO-K1 cells stably transfected with the human adenosine A3 receptor are grown in Dulbecco's modified Eagles medium with nutrient mixture F12 containing NaHCO3 and Glutamax. Media is supplemented with 10% fetal calf serum, geneticin (G418; 0.67 mg/mL), hygromycin (500 μg/mL) and adenosine deaminase (1 U/mL). Cells are maintained at 37° C. with 5% CO2 in air.
CAMP Measurements: Intracellular cAMP production is measured directly using a non-acetylation cAMP enzyme immunoassay (Amersham Biosciences, Little Chalfont, UK). Cultured CHO cells expressing human adenosine A3 receptors are allowed to plate overnight in 96-well plates in culture medium containing adenosine deaminase. Twenty-four hours later, they are incubated with adenosine analogues or compounds of the invention (0.1 nM-1 μM) for 5 min at 37° C., followed by incubation with forskolin (10 μM) for 10 min. The cells are then lysed with 200 μL of lysis reagent 1 provided with the kit for 10 min to release intracellular CAMP. Aliquots of the supernatants are then transferred to a 96-well microtitre plate coated with donkey anti-rabbit IgG; 100-μL cAMP standards (12.5-3200 fmol/well) are also added to the microtitre plate; 100 μL of rabbit anti-cAMP antibody is added to all wells and incubated at 2-5° C. for 2 h. The antiserum is made up in lysis reagent 2, which sequesters the key component in lysis reagent 1 and ensures that CAMP is free for subsequent analysis. Then 50 μL of cAMP peroxidase conjugate is added to all wells and left to incubate for 60 min at 2-5° C. to allow competition for the antibody between the un-labelled and horse radish peroxidase (HRP)-labelled cAMP. Wells are then ished with buffer and 150 μL of enzyme substrate containing 3,3′,5,5′-tetramethylbenzidine/hydrogen peroxide in 20% (v/v) dimethylformamide is added to each well and left to incubate for 60 min on a Titramax 100 microtitre plate shaker (Heidolph Instruments, Schwabach, Germany) at room temperature for color development. The reaction is stopped by the addition of 100 μL of 1 M sulfuric acid and the optical density (OD) read at 450 nm on a spectrophotometric MRX microplate reader (Dynex Technologies, Chantilly, VA, USA).
Analyses: Each sample/standard was analyzed in duplicate and the resulting OD values averaged. The percent bound (B/B0) for each standard and sample was calculated using the following relationship:
[formula] • where B is the specific OD for standard/sample and B0 is the specific OD for the zero standard. A standard curve was generated by plotting % B/B0 as a function of the log fmol cAMP standard per well. The fmol per well value for cAMP in each sample was then read from the graph. The results are expressed as a percent of control agonist response: (measured response/control response)*100 in the presence of the compounds of the invention. Concentration-response curves for inhibition of cAMP production were constructed for all compounds of the invention and reference compounds. The EC50 values (concentration producing a half-maximal response) were determined by non-linear regression analysis of the concentration-response curves generated with mean replicate values using Hill equation curve fitting, according to the equation:
[formula] • where Y=response, A=left asymptote of the curve, D=right asymptote of the curve, C=compound concentration, and C50=EC50, and nH=slope factor. […]

human A3 receptors = target: T2, human A3 receptors (Homo sapiens, UniProt P0DMS8); assay: Adenosine receptor binding assay ([3H]HEMADO competition); conditions: Table 1, membranes of HEK-293 cells expressing human A3 receptor, Cheng-Prusoff, read-out: hA3 Ki
T2 construct: expressed in transfected cells; host or cells: HEK-293 cells, stably transfected; membrane preparation
T2 sequence (P0DMS8 1-318): T1 sequence (P0DMS8 1-318)
Description: Materials and Reference Compounds: [^3H] HEMADO (obtained from (ARC, Cat: ART1456) and [3H] DPCPX (obtained from PerkinElmer Cat no. NET974250UC)). IB-MECA was obtained from Tocris (Bristol, UK) and N6-cyclopentyl adenosine (CPA) is obtained from Sigma-Alrich (Poole, UK). Cell culture media, G418 and hygromycin are obtained from Invitrogen (Paisley, UK). Fetal calf serum is obtained from Perbio Science (Cheshire, UK). All other reagents are obtained from Fisher Chemicals (Loughborough, UK).
The method followed is that of Yates L, Clark J H, Martin T J, James S, Broadley K J, Kidd E J. Radioligand binding and functional responses of ligands for human recombinant adenosine A3 receptors. Auton Autacoid Pharmacol. 2006; 26 (2): 191-200. Cells stably transfected with the human adenosine A3 or A1 receptor are grown in Dulbecco's modified Eagles medium with nutrient mixture F12 containing NaHCO3 and Glutamax. Media is supplemented with 10% fetal calf serum, geneticin (G418; 0.67 mg/mL), hygromycin (500 μg/mL) and adenosine deaminase (1 U/mL). Cells are maintained at 37° C. with 5% CO2 in air. Cells are harvested and homogenized in ice-cold Tris buffer [50 mM Tris, 150 mM NaCl, 1 mM ethylenediaminetetraacetic acid (EDTA), pH 7.4] supplemented with the peptidase inhibitors, 4-(2-aminoethyl)benzene sulfonylfluoride (1 mM) and bacitracin (0.1 mg/mL), using a Polytron homogenizer (3×10 s bursts). The homogenate is spun for 10 min (4° C.) at 500 g. The supernatant is retained and the pellet is re-suspended in the buffer, homogenized and spun as above. The combined supernatants are centrifuged for 15 min (4° C.) at 48,000 g. The resultant pellet is re-suspended in the buffer and centrifuged for a second time at 48,000 g. The membrane pellet is then suspended in Tris buffer containing no peptidase inhibitors or adenosine deaminase and stored at −80° C. at a protein concentration of 1 mg/mL.
Binding Assays: Radioligand-binding assays are performed using the adenosine A3 receptor agonist [^3H] HEMADO and the A1 receptor […] [^3H] DPCPX. Binding assays are conducted in a total volume of 100 μL containing a 50 mM Tris, pH 7.4 buffer with or without 10 mM MgCl2, 20 μg membranes and either 4.154 nM [3H] HEMADO (for the A3 receptor) or 1.6065 nM [^3H] DPCPX (for the A1 receptor). Assays are conducted at room temperature for 60 min (A1 receptor) or 120 min (A3 receptor) and terminated by the addition of 2 ml of ice-coldish buffer (50 mM Tris, pH 7.4 with or without 10 mM MgCl2) and rapid filtration over 0.03% polyethylenimine-treated Whatman GF/C filters using a Brandel cell harvester (Semat International Ltd., St Albans, UK). Filters are then ished three times with 2 ml of ice-cold buffer. The filter-bound radioactivity are counted using a Compugamma counter (LKB Wallac, Turku, Finland). Competition experiments are performed to investigate the ability of reference compounds and embodiments of the invention to inhibit [^3H] HEMADO binding. Non-specific binding are determined using the respective compound at its highest concentration.
Data Analysis: The Kd and Bmax values for binding data are calculated based upon the molar amounts of bound and free [^3H] HEMADO. […] IC50 and Ki values and Hill slopes for inhibition of the radioligand binding by the compounds of the invention are calculated from the ligand competition curves using the Excel spreadsheet and the Kd value calculated for either [^3H] HEMADO or [^3H] DPCPX. The results are expressed as a percent of control specific binding and as a percent inhibition of control specific binding obtained in the presence of the compounds of the invention. The IC50 values (concentration causing a half-maximal inhibition of control specific binding) and Hill coefficients (nH) are determined by non-linear regression analysis of the competition curves generated with mean replicate values using Hill equation curve fitting: […]

EC50 [1] [nM] | cAMP Efficacy (%) [1] [%] | Ki (human A3 receptors) [nM] | Structure (SMILES)
16.1 | 70.12 | 41 | CCNc1cc(Cl)nc2c1ncn2[C@H]1[C@H](O)[C@H](O)[C@]2(c3ncco3)C[C@H]12 [Compound 10B]
5.5 | 107.37 | 31.2 | CCNc1cc(Cl)nc2c1ncn2[C@H]1[C@H](O)[C@H](O)[C@]2(c3ncc[nH]3)C[C@H]12 [Compound 12B]
– | 2 | 2.1 | CCNc1cc(Cl)nc2c1ncn2[C@H]1[C@H](O)[C@H](O)[C@]2(c3nnn(C)n3)C[C@H]12 [Compound 13B]
27.2 | 89.97 | 21.7 | O[C@H]1[C@H](n2cnc3c(NCC(F)F)cc(Cl)nc32)[C@H]2C[C@@]2(c2ncn[nH]2)[C@H]1O [Compound 14B]
